These results are taken from paper PMC12040169 (PLOS Biology, 2025).

A short description of the first series: in vitro. The settings on record: human, hela cells, % viability.
For `CC(=O)Nc1ccc2nc(Nc3nc4c(F)cc(F)cc4s3)sc2c1` [CBK287489], the viability (in general, a read-out of living cells in per cent, often relative to untreated cells) at 28.5 h, 10 µM is 107%.
On to `c1ccc(-c2nnc(C3CCNCC3)[nH]2)nc1` [CBK288629G], for which the viability at 28.5 h, 10 µM was 97%.
The same measure, in the same setting: the result for `O=[N+]([O-])c1cc(CN2CCCCC2)c2cccnc2c1O` [CBK265121] reads 86.3%; that for `COc1cc(/C=N/n2cnnc2)ccc1OCc1cccc(C(=O)O)c1` [CBK264249], 108%; that for `COC(=O)c1c(NC(=O)C(=O)NCc2ccccn2)sc2c1CCC2` [CBK269431], 94.6%.
Turning to `Cc1nc2c(OCCN3C(=O)c4ccccc4C3=O)cccn2c1N(C)C(=O)C1CCCCC1` [CBK147157], the viability at 28.5 h, 10 µM turned out to be 95%.
Same read-out and setting: the result for `CC(C(=O)NCCN1CCOCC1)N1c2cccc3cccc(c23)S1(=O)=O` (stereo not shown) [CBK269911] reads 91.2%.
As for `COc1cc(C(=O)Nc2cc(-c3nc4ncccc4o3)ccc2C)ccc1OCc1ccc(Cl)cc1` [CBK264704], the viability at 28.5 h, 10 µM came out at 112%.
Regarding `COc1ccc(Br)cc1/C=C/C(=O)NC(=S)Nc1cc(C(=O)O)ccc1Cl` [CBK265564], the viability at 28.5 h, 10 µM is 90.7%.
Still for that read-out and setting: the value for `O=C(NCc1n[nH]c(=S)n1-c1cccc(C(F)(F)F)c1)c1cccs1` [CBK067697] was 91.2%; that for `COc1cc(/C=C(/C#N)c2nc3ccccc3[nH]2)ccc1OCc1ccc(C(=O)O)o1` [CBK267839] was 90.7%; that for `CCN(C(=O)Nc1cccnc1Oc1ccc(F)cc1)C1CCOCC1` [CBK306535] was 89.5%.
Still for that read-out and setting: the result for `Cc1ccc(C2(C(=O)N3CCCC3)CCN(S(=O)(=O)c3ccc(C)cc3)CC2)cc1` [CBK008752] reads 102%.
On the same count and under the same terms, the value for `CCOC(=O)N1CCN(S(=O)(=O)c2coc(C)c2C(=O)OC)CC1` [CBK057079] was 94.7%; that for `CS(=O)(=O)c1ccc(CN2C(=O)CC3(CCN(C(=O)Cc4cccs4)CC3)C2=O)cc1` [CBK155013] was 100%.
With `c1cncc(COc2cncc(N3CCCC3)n2)c1` [CBK115892], the viability at 28.5 h, 10 µM was found to be 88.4%.
Turning to `COCCSc1ccccc1C(=O)Nc1ccc(S(N)(=O)=O)cc1` [CBK267530], the viability at 28.5 h, 10 µM came to 83.2%.
As for `Oc1ccc2[nH]c3c(c2c1)CCNC31CCN(CCOc2ccccc2)C1` (stereo not shown) [CBK081496], the viability at 28.5 h, 10 µM came to 85.9%.
Same read-out and setting: the value for `CC(C)CNc1nc(-c2cccnc2)cnc1N` [CBK063780] was 99.5%.
As for `Nc1ncc(-c2ccoc2)nc1-c1ccc(C(=O)O)cc1` [CBK063972], the viability at 28.5 h, 10 µM stood at 89.6%.
Same read-out and setting: the result for `Cc1ccc(NC(=O)C2CC(=O)Nc3nc(SCc4ccccc4C)[nH]c(=O)c32)c(C)c1` (stereo not shown) [CBK294438] reads 91%; that for `NS(=O)(=O)c1ccc(NC(=O)CCC2COc3ccccc3O2)cc1` (stereo not shown) [CBK267696], 87.9%.
The same measure, in the same setting: the result for `CCOC(=O)CSc1nnc(-c2ccncc2)n1-c1ccccc1` [CBK263350] reads 92%; that for `Cc1ccnc(NC(=O)c2ccccc2)c1` [CBK004031], 90.6%.
Take `NS(=O)(=O)c1cccc(NC(=O)c2cccs2)c1` [CBK024419]: the viability at 28.5 h, 10 µM came to 94.2%.
The same measure, in the same setting: the value for `COCCC(=O)Nc1cccc(N2CCNCC2)c1` [CBK004769T] was 89.9%; that for `Cc1cccc(Nc2nc(N)nc(CSc3nccn3C)n2)c1` [CBK266105] was 98.7%.
The same measure, in the same setting: the result for `CCCCC1CCC(C(=O)Nc2cc(C)c3c(=O)oc4ccccc4c3n2)CC1` (stereo not shown) [CBK291136] reads 101%; that for `S=c1cc(SCc2ccccc2Cl)nc[nH]1` [CBK288496], 95.2%.
With `COc1cc2c(cc1OC)C1(CCN(CCCC(F)(F)F)CC1)NC(=O)C2` [CBK039859], the viability at 28.5 h, 10 µM came out at 97.9%.
The same measure, in the same setting: the value for `CC(=O)N1CCc2sccc2C1c1ccccc1NCc1ccoc1` (stereo not shown) [CBK286432] was 91.6%; that for `COc1ccc2[nH]c3c(c2c1)CCN(CC(C)O)C31CCN(CCOc2ccccc2)C1` (stereo not shown) [CBK084612T] was 73%; that for `Cc1ccc(NC(=S)NC(=O)Cc2ccccc2)c(O)c1` [CBK264337] was 106%.
As for `CCCc1[nH]nc(O)c1Cc1ccc(C(C)(C)C)cc1` [CBK075028], the viability at 28.5 h, 10 µM is 79.5%.
The same measure, in the same setting: the value for `Cc1cc(C)c(C)c(CSCc2nc3ccccc3[nH]2)c1C` [CBK266466] was 98.8%.
As for `O=C(C1=C(O)C(=O)N(Cc2cccnc2)C1c1ccncc1)c1ccc(Cl)cc1` (stereo not shown) [CBK264513], the viability at 28.5 h, 10 µM was 94.8%.
Same read-out and setting: the result for `CCOC(=O)c1cccc(NS(=O)(=O)c2ccc(C)c([N+](=O)[O-])c2)c1` [CBK034343] reads 84.8%.
For `O=C(NCCc1cccs1)Nc1ccc2c(c1)C(F)(F)OC(F)(F)O2` [CBK045255], the viability at 28.5 h, 10 µM is 98.2%.
Same read-out and setting: the value for `Cc1ccc(NS(=O)(=O)c2ccc(CCC(=O)N3CCc4ccccc4C3)cc2)cc1` [CBK267616] was 94.9%; that for `Cn1cc(CN[C@@H]2CCC(=O)N[C@H]2c2cc(F)cc(F)c2)cn1` [CBK282913] was 100%; that for `CCCC(=O)c1ccc(S(=O)(=O)N2CCCN(Cc3cccc4cccnc34)CC2)cc1` [CBK062909] was 93%.
Same read-out and setting: the value for `O=c1c(N2CCC(Sc3ccccc3)CC2)nccn1Cc1ccc([N+](=O)[O-])cc1` [CBK153654] was 108%; that for `CCNc1cc(-c2ccc(OC)cc2)ncn1` [CBK090883] was 89%.
For `O=C(Nc1ccc(S(=O)(=O)N2CCCCCC2)cc1)c1nc2ncccn2n1` [CBK266155], the viability at 28.5 h, 10 µM is 97.7%.
Still for that read-out and setting: the result for `S=c1nc(-c2ccccc2)n2cc(Br)ccc2n1` [CBK026696] reads 111%.
On to `O=C(O)CC(Cc1ccccc1)C(=O)Nc1ccc(F)cc1` (stereo not shown) [CBK286841], for which the viability at 28.5 h, 10 µM was found to be 96.1%.
Consider `c1ccc(-c2cc(CC3(NCc4c[nH]c5ccccc45)COC3)no2)nc1` [CBK289250], for which the viability at 28.5 h, 10 µM was 102%.
The same measure, in the same setting: the result for `O=C(COc1ccc2ccccc2c1Br)NCCN1CCOCC1` [CBK267391] reads 89.7%.
With `CCN(CC)CCNc1nc2cc(Cl)ccc2[nH]1` [CBK262453], the viability at 28.5 h, 10 µM was 102%.
As for `COCCn1c(CO)nnc1[C@H]1C[C@@H](NC(=O)c2ccc(C)s2)C1` [CBK307063], the viability at 28.5 h, 10 µM came to 73.9%.
Consider `Cc1cc(=O)oc2cc(OC(C)C(=O)Nc3sc4c(c3C(N)=O)CCCC4)ccc12` (stereo not shown) [CBK268050], for which the viability at 28.5 h, 10 µM was determined as 94.6%.
Still for that read-out and setting: the value for `c1ccc2c(-c3cc(Nc4ccc5[nH]ccc5c4)ncn3)cccc2c1` [CBK037815] was 42.9%.
On the same count and under the same terms, the result for `CCCCCc1ccc(S(=O)(=O)N2CCN(C(=O)C3CCCO3)CC2)cc1` (stereo not shown) [CBK044329] reads 101%; that for `CCOC(=O)C1(C2CCCCC2)CCN(C(=O)c2cccc(C(F)(F)F)c2)CC1` [CBK136920], 91.7%; that for `CCN1CCC(CC(=O)N2CCC(c3ccccc3)C2)CC1` (stereo not shown) [CBK281958], 79.5%.
Take `O=C(Nc1cccnc1N1CCNCC1)c1ccoc1` [CBK029417T]: the viability at 28.5 h, 10 µM was 95.4%.
Regarding `COc1ccc(Cn2c(-c3ccc(OC)c(O)c3)nc3ccccc32)cc1O` [CBK263370], the viability at 28.5 h, 10 µM is 108%.
In the case of `Cc1cc(C2CCCCCN2Cc2cc(Cl)ccc2O)on1` (stereo not shown) [CBK281948], the viability at 28.5 h, 10 µM amounted to 89.2%.
The same measure, in the same setting: the result for `Nc1ccc(C(=O)Nc2ccc(Nc3cc(-c4cc(C(F)(F)F)cc(C(F)(F)F)c4)ncn3)cc2)cc1` [CBK091091] reads 94.8%; that for `C(=N\Nc1nnc(-c2ccccc2)c(-c2ccccc2)n1)/c1cccnc1` [CBK262025], 91.8%.
As to `Cc1n[nH]c(C)c1C12CC3CC(CC(CC(=O)O)(C3)C1)C2` [CBK288241], the viability at 28.5 h, 10 µM stood at 92.2%.
Take `Cc1ccc(-c2nnc(CNC(=O)Cc3ccccc3Cl)o2)s1` [CBK284648]: the viability at 28.5 h, 10 µM worked out at 85.2%.
For `CC(=O)N[C@H]1CO[C@H]2[C@@H]1OC[C@@H]2Nc1nccc(-c2cccc(F)c2)n1` [CBK289534], the viability at 28.5 h, 10 µM came out at 99.3%.
In the case of `Cc1c(Cl)c([N+](=O)[O-])nn1CC(=O)N1CCN(C)CC1` [CBK261719], the viability at 28.5 h, 10 µM is 89.4%.
As for `Nc1cc(=O)[nH]c(=O)n1Cc1ccc(Cl)cc1` [CBK288002], the viability at 28.5 h, 10 µM turned out to be 112%.
Take `COc1ccc([C@@]23CC[C@@H](NC(=O)Nc4ncc(Cl)s4)C[C@@H]2N(C)CC3)cc1OC` [CBK051620T]: the viability at 28.5 h, 10 µM came to 96.1%.
The same measure, in the same setting: the result for `COc1nccnc1OC1CCN(Cc2ccccc2)CC1` [CBK084238] reads 103%; that for `COc1cccc(/C=C(/C#N)c2ccc(Cl)cc2)c1OCc1cccc(C(=O)O)c1` [CBK266721], 97.2%; that for `Cc1ccc(-c2n[nH]c(=S)n2CCC(=O)NC(C)c2ccc3c(c2)CCCC3)cc1` (stereo not shown) [CBK295666], 90.1%.
In the case of `CC(Oc1cccc(F)c1)C(=O)N(Cc1cccnc1)CC1CCCO1` (stereo not shown) [CBK305313], the viability at 28.5 h, 10 µM turned out to be 108%.
Same read-out and setting: the result for `O=C(c1cccnc1)C1CCN(C(=O)Cc2cccc(F)c2)CC1` [CBK283506] reads 101%; that for `CCOC(=O)C(C)N1C(=O)S/C(=C/c2ccc(Oc3ccc([N+](=O)[O-])cn3)cc2)C1=O` (stereo not shown) [CBK265114], 93.9%.
On to `Cc1ccsc1C(C)NC1CCCN(c2ccn(C)n2)C1=O` (stereo not shown) [CBK306419], for which the viability at 28.5 h, 10 µM was determined as 106%.
Take `CC(=O)Nc1ccc(-c2nc3ncccc3o2)cc1C` [CBK288132]: the viability at 28.5 h, 10 µM amounted to 91.1%.
For the molecule `CC(C)C[C@H]([C@@H]1C[C@@H](C(C)C)C(=O)O1)N1C(=O)c2ccccc2C1=O` [CBK011526], the viability at 28.5 h, 10 µM was 93.9%.
Same read-out and setting: the result for `COc1cccc(NC(=O)Cn2cc(OC)c(=O)cc2CN2CCOCC2)c1` [CBK294430] reads 87.2%.
Still for that read-out and setting: the result for `O=C(NCCCN1CCOCC1)/C(=N\O)c1ccccn1` [CBK288366] reads 94.1%; that for `CCN(Cc1ccccc1)C(=O)Nc1ccc(C)cc1` [CBK155248], 99.1%.

The series is the same for the next values; noted with them: human, hela cells, % viability, bulk resorufin, single well.
With `CSc1cc(C)c2c(c1)COC1(CCN(C(=O)Cc3ccccc3)CC1)O2` [CBK061099], the viability at 28.5 h, 10 µM was 93.4%.
